Reference: ChEMBL document CHEMBL4507287, “Data for DCP probe MRL-650” (2021)

Assays:
[1] = biological target: Phosphatidylinositol 4,5-bisphosphate 3-kinase catalytic subunit alpha isoform (Homo sapiens) (UniProt P42336); settings: Compound concentration 1000.0 nM
[2] = biological target: Casein kinase I isoform gamma-2 (Homo sapiens) (UniProt P78368); settings: Compound concentration 1000.0 nM
[3] = biological target: Serine/threonine-protein kinase BRSK2 (Homo sapiens) (UniProt Q8IWQ3); settings: Compound concentration 1000.0 nM
[4] = biological target: Cyclin-dependent kinase 4 (Homo sapiens) (UniProt P11802); settings: Compound concentration 1000.0 nM
[5] = biological target: Ephrin type-B receptor 1 (Homo sapiens) (UniProt P54762); settings: Compound concentration 1000.0 nM
[6] = biological target: Serine/threonine-protein kinase 26 (Homo sapiens) (UniProt Q9P289); settings: Compound concentration 1000.0 nM
[7] = biological target: Ribosomal protein S6 kinase alpha-4 (Homo sapiens) (UniProt O75676); settings: Compound concentration 1000.0 nM
[8] = biological target: Tyrosine-protein kinase ITK/TSK (Homo sapiens) (UniProt Q08881); settings: Compound concentration 1000.0 nM
[9] = biological target: Serine/threonine-protein kinase Nek6 (Homo sapiens) (UniProt Q9HC98); settings: Compound concentration 1000.0 nM
[10] = test system: Tyrosine-protein kinase ABL1 (Homo sapiens), P00519 [F317I]; settings: Compound concentration 1000.0 nM
[11] = biological target: LIM domain kinase 1 (Homo sapiens) (UniProt P53667); settings: Compound concentration 1000.0 nM
[12] = biological target: Phosphatidylinositol 3-kinase C2 domain-containing subunit gamma (Homo sapiens) (UniProt O75747); settings: Compound concentration 1000.0 nM
[13] = biological target: Insulin receptor (Homo sapiens) (UniProt P06213); settings: Compound concentration 1000.0 nM
[14] = biological target: Sodium-dependent dopamine transporter (Homo sapiens, UniProt Q01959); settings: Compound concentration 10.0 uM
[15] = biological target: Ephrin type-B receptor 3 (Homo sapiens) (UniProt P54753); settings: Compound concentration 1000.0 nM
[16] = test system: Tyrosine-protein kinase ABL1 (Homo sapiens), P00519 [Q252H]; settings: Compound concentration 1000.0 nM
[17] = biological target: Mitogen-activated protein kinase 6 (Homo sapiens) (UniProt Q16659); settings: Compound concentration 1000.0 nM
[18] = biological target: Calcium/calmodulin-dependent protein kinase kinase 1 (Homo sapiens) (UniProt Q8N5S9); settings: Compound concentration 1000.0 nM
[19] = biological target: Serine/threonine-protein kinase MARK1 (Homo sapiens) (UniProt Q9P0L2); settings: Compound concentration 1000.0 nM
[20] = biological target: Mitogen-activated protein kinase 13 (Homo sapiens) (UniProt O15264); settings: Compound concentration 1000.0 nM
[21] = test system: Mast/stem cell growth factor receptor Kit (Homo sapiens), P10721 [L576P]; settings: Compound concentration 1000.0 nM
[22] = biological target: Serine/threonine-protein kinase 32B (Homo sapiens) (UniProt Q9NY57); settings: Compound concentration 1000.0 nM
[23] = biological target: Cyclin-dependent kinase 13 (Homo sapiens) (UniProt Q14004); settings: Compound concentration 1000.0 nM
[24] = biological target: Ephrin type-A receptor 7 (Homo sapiens) (UniProt Q15375); settings: Compound concentration 1000.0 nM
[25] = test system: Leucine-rich repeat serine/threonine-protein kinase 2 (Homo sapiens), Q5S007 [G2019S]; settings: Compound concentration 1000.0 nM
[26] = biological target: Uncharacterized serine/threonine-protein kinase SBK3 (Homo sapiens) (UniProt P0C264); settings: Compound concentration 1000.0 nM
[27] = biological target: Proto-oncogene tyrosine-protein kinase ROS (Homo sapiens) (UniProt P08922); settings: Compound concentration 1000.0 nM
[28] = biological target: Serine/threonine-protein kinase PAK 1 (Homo sapiens) (UniProt Q13153); settings: Compound concentration 1000.0 nM
[29] = biological target: D(1B) dopamine receptor (Homo sapiens) (UniProt P21918); settings: Compound concentration 10.0 uM
[30] = biological target: Cyclin-dependent kinase 7 (Homo sapiens) (UniProt P50613); settings: Compound concentration 1000.0 nM
[31] = biological target: Interferon-induced, double-stranded RNA-activated protein kinase (Homo sapiens) (UniProt P19525); settings: Compound concentration 1000.0 nM
[32] = biological target: Serine/threonine-protein kinase Sgk1 (Homo sapiens) (UniProt O00141); settings: Compound concentration 1000.0 nM
[33] = biological target: Sodium-dependent noradrenaline transporter (Homo sapiens) (UniProt P23975); settings: Compound concentration 10.0 uM
[34] = biological target: Serine/threonine-protein kinase Nek1 (Homo sapiens) (UniProt Q96PY6); settings: Compound concentration 1000.0 nM
[35] = biological target: TRAF2 and NCK-interacting protein kinase (Homo sapiens) (UniProt Q9UKE5); settings: Compound concentration 1000.0 nM
[36] = biological target: Mitogen-activated protein kinase kinase kinase 12 (Homo sapiens) (UniProt Q12852); settings: Compound concentration 1000.0 nM
[37] = biological target: Mitogen-activated protein kinase kinase kinase 3 (Homo sapiens) (UniProt Q99759); settings: Compound concentration 1000.0 nM
[38] = biological target: 5-hydroxytryptamine receptor 1B (Homo sapiens) (UniProt P28222); settings: Compound concentration 10.0 uM
[39] = biological target: Fibroblast growth factor receptor 3 (Homo sapiens) (UniProt P22607); settings: Compound concentration 1000.0 nM
[40] = biological target: Activin receptor type-1 (Homo sapiens) (UniProt Q04771); settings: Compound concentration 1000.0 nM
[41] = biological target: Serine/threonine-protein kinase RIO1 (Homo sapiens) (UniProt Q9BRS2); settings: Compound concentration 1000.0 nM
[42] = biological target: Serine/threonine-protein kinase PLK2 (Homo sapiens) (UniProt Q9NYY3); settings: Compound concentration 1000.0 nM
[43] = test system: Epidermal growth factor receptor (Homo sapiens), P00533 [G719S]; settings: Compound concentration 1000.0 nM
[44] = biological target: Interleukin-1 receptor-associated kinase 3 (Homo sapiens) (UniProt Q9Y616); settings: Compound concentration 1000.0 nM
[45] = biological target: Dual specificity protein kinase CLK2 (Homo sapiens) (UniProt P49760); settings: Compound concentration 1000.0 nM
Sequence of Dual specificity protein kinase CLK2 (Homo sapiens) (P49760 whole entry, looked up): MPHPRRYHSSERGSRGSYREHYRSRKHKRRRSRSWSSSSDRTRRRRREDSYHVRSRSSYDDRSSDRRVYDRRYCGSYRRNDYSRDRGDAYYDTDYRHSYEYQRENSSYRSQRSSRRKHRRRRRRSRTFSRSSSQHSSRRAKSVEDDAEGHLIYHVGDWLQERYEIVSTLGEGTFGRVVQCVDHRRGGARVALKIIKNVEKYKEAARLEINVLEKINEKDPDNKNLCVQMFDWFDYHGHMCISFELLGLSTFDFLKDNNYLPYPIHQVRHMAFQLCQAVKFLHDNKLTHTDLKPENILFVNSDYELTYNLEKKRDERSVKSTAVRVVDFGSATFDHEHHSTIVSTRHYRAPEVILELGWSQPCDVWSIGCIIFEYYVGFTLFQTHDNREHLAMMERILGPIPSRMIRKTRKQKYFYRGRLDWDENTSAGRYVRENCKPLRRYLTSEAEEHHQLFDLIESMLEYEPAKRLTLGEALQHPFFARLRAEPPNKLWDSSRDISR

Sequence of Interleukin-1 receptor-associated kinase 3 (Homo sapiens) (Q9Y616 whole entry): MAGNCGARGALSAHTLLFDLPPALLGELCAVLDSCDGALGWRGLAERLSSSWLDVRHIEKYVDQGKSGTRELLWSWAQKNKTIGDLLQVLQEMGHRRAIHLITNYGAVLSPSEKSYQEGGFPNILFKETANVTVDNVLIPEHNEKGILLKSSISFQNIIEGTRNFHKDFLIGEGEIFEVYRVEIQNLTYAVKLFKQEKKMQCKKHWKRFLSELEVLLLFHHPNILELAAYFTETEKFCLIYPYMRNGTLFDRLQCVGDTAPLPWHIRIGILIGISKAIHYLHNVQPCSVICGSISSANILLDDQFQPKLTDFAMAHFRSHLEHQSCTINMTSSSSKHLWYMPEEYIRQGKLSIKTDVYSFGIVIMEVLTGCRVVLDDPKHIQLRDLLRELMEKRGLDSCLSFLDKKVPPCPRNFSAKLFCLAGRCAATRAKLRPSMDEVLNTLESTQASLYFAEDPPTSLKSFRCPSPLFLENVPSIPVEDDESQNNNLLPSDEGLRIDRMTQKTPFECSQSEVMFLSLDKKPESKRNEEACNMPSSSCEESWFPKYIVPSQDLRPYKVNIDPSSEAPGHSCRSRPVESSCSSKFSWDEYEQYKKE
Sequence of Ephrin type-A receptor 7 (Homo sapiens) (Q15375 28-998 limits assumed): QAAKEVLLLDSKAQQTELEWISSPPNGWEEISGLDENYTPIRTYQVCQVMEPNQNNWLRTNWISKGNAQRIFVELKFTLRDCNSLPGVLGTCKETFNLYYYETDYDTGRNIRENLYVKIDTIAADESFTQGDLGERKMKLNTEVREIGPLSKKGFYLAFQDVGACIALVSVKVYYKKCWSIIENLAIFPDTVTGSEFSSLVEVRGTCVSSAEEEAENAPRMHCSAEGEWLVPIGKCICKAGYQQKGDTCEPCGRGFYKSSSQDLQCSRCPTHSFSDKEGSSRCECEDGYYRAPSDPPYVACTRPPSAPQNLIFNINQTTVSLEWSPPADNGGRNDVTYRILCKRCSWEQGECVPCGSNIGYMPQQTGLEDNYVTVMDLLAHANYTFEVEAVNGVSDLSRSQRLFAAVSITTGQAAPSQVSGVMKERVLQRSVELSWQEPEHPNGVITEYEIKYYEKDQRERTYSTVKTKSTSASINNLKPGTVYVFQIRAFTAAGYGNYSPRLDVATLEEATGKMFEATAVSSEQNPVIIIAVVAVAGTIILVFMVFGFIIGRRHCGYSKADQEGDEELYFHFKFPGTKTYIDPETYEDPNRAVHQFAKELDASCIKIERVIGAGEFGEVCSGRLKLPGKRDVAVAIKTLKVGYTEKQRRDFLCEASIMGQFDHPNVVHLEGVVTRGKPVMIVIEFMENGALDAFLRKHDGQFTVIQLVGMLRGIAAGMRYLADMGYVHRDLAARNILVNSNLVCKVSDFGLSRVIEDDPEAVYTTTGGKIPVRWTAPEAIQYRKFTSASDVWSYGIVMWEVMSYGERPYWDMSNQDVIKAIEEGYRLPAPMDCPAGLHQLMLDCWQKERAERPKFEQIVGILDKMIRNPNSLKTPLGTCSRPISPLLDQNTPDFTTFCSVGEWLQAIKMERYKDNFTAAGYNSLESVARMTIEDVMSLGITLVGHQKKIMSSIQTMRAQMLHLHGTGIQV
Sequence of Sodium-dependent noradrenaline transporter (Homo sapiens) (P23975 whole entry): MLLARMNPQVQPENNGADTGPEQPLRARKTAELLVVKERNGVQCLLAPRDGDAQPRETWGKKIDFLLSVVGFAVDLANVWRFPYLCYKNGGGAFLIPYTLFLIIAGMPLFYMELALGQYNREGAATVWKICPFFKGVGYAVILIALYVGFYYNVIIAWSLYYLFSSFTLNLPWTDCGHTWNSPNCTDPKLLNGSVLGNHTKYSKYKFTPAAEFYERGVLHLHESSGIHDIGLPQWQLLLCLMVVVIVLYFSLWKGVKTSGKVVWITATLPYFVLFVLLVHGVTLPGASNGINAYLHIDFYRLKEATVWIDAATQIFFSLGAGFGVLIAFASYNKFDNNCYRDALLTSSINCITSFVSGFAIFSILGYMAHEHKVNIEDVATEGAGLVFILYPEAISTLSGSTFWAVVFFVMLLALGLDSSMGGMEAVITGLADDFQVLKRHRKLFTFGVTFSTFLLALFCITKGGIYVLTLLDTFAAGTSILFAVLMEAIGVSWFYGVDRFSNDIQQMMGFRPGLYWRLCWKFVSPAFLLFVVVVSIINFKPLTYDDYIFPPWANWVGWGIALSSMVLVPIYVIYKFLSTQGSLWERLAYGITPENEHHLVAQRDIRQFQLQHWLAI
Sequence of Ephrin type-B receptor 3 (Homo sapiens) (P54753 whole entry): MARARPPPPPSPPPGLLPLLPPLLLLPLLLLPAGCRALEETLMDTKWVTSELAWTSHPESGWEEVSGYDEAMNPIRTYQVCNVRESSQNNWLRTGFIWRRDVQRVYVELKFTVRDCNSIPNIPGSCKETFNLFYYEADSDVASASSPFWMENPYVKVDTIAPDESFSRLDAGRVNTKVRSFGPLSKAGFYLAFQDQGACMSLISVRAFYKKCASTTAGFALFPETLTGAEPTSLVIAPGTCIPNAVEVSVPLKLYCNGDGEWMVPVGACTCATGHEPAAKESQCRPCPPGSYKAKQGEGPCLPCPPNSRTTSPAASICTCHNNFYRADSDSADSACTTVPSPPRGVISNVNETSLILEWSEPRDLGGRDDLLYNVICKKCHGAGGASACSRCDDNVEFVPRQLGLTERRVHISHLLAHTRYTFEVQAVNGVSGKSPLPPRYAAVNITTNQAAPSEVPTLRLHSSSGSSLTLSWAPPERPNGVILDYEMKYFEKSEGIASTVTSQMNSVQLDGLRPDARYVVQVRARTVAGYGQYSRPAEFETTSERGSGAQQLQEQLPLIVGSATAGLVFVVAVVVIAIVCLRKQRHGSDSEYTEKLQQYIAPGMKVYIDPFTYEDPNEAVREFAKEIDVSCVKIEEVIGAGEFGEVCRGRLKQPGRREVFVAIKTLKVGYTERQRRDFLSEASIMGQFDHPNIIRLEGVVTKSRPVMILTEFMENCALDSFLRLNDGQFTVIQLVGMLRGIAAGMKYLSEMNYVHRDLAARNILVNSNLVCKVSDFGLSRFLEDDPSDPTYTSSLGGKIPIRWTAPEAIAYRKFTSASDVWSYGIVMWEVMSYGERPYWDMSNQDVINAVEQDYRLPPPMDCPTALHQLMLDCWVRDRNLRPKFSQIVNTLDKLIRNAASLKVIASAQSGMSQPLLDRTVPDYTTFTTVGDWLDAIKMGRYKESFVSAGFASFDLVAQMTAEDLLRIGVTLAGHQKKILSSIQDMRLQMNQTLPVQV
Sequence of Insulin receptor (Homo sapiens) (P06213 28-758 limits assumed): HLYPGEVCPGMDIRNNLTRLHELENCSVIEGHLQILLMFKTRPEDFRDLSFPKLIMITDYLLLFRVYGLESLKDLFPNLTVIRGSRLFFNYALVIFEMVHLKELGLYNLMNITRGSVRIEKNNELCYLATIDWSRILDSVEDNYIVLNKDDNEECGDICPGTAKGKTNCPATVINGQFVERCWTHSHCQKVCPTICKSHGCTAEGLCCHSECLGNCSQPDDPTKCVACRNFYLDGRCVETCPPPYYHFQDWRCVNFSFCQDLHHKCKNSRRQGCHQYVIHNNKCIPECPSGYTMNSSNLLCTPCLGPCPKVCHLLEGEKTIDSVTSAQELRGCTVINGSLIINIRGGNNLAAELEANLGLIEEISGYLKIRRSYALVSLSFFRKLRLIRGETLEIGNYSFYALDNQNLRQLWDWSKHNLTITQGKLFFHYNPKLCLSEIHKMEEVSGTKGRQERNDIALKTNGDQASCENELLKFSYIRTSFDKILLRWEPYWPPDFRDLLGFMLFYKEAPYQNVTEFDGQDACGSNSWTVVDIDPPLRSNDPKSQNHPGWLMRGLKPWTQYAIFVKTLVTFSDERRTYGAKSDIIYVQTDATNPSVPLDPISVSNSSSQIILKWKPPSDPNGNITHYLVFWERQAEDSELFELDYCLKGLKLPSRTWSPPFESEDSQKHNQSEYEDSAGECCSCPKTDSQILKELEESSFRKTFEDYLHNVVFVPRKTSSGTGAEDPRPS
Sequence of Insulin receptor (Homo sapiens) (P06213 763-1382 limits assumed): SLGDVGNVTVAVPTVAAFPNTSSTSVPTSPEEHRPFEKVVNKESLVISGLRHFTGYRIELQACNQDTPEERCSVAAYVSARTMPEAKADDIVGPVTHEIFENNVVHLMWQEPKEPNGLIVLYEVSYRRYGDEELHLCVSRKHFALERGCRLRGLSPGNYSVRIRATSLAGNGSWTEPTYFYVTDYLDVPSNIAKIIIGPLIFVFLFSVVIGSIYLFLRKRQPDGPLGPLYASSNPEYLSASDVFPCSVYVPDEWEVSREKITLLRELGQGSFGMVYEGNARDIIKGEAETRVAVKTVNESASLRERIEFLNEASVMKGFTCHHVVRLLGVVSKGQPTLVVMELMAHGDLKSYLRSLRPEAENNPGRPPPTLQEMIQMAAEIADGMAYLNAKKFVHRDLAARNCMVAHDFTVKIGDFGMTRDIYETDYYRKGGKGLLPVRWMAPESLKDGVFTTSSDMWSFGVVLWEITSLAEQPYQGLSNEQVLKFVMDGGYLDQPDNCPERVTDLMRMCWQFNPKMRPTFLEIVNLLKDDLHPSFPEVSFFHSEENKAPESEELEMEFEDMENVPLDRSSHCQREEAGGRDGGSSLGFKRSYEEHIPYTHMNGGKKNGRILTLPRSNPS

CC(=O)Nc1c(C(C)=O)c(=O)n(C)c2nc(-c3ccc(Cl)cc3Cl)c(-c3ccc(Cl)cc3)cc12 [NAPHTHYRIDINONE]
residual activity [1]: 100% | residual activity [2]: 100% | residual activity [3]: 100% | residual activity [4]: 100% | residual activity [5]: 100% | residual activity [6]: 87% | residual activity [7]: 100% | residual activity [8]: 100% | residual activity [9]: 100% | residual activity [10]: 94% | residual activity [11]: 100% | residual activity [12]: 63% | residual activity [13]: 100% | inhibition [14]: 36.4% | residual activity [15]: 100% | residual activity [16]: 100% | residual activity [17]: 100% | residual activity [18]: 100% | residual activity [19]: 100% | residual activity [20]: 100% | residual activity [21]: 100% | residual activity [22]: 100% | residual activity [23]: 100% | residual activity [24]: 100% | residual activity [25]: 100% | residual activity [26]: 100% | residual activity [27]: 99% | residual activity [28]: 100% | inhibition [29]: 5.24% | residual activity [30]: 100% | residual activity [31]: 100% | residual activity [32]: 100% | inhibition [33]: 15.5% | residual activity [34]: 100% | residual activity [35]: 100% | residual activity [36]: 100% | residual activity [37]: 100% | inhibition [38]: 43.6% | residual activity [39]: 100% | residual activity [40]: 100% | residual activity [41]: 100% | residual activity [42]: 100% | residual activity [43]: 100% | residual activity [44]: 95% | residual activity [45]: 100%

CC(=O)c1c(NS(C)(=O)=O)c2cc(-c3ccc(Cl)cc3)c(-c3ccc(Cl)cc3Cl)nc2n(C)c1=O [MRL-CB1-NC]
residual activity [1]: 100% | residual activity [2]: 100% | residual activity [3]: 90% | residual activity [4]: 94% | residual activity [5]: 100% | residual activity [6]: 84% | residual activity [7]: 93% | residual activity [8]: 97% | residual activity [9]: 100% | residual activity [10]: 85% | residual activity [11]: 88% | residual activity [12]: 91% | residual activity [13]: 73% | inhibition [14]: 67.1% | residual activity [15]: 100% | residual activity [16]: 100% | residual activity [17]: 100% | residual activity [18]: 100% | residual activity [19]: 100% | residual activity [20]: 97% | residual activity [21]: 99% | residual activity [22]: 89% | residual activity [23]: 96% | residual activity [24]: 100% | residual activity [25]: 100% | residual activity [26]: 95% | residual activity [27]: 100% | residual activity [28]: 96% | inhibition [29]: 44.5% | residual activity [30]: 82% | residual activity [31]: 100% | residual activity [32]: 100% | inhibition [33]: 20.2% | residual activity [34]: 100% | residual activity [35]: 93% | residual activity [36]: 100% | residual activity [37]: 100% | inhibition [38]: -2.36% | residual activity [39]: 100% | residual activity [40]: 93% | residual activity [41]: 100% | residual activity [42]: 96% | residual activity [43]: 100% | residual activity [44]: 100% | residual activity [45]: 100%
